Assays:
[1] = tested on: HCT-116; experiment: Antiproliferative activity against human HCT-116 cells assessed as cell growth inhibition at 1 uM incubated for 72 hrs by SRB assay; type: functional
[2] = tested on: HCT-116; experiment: Antiproliferative activity against human HCT-116 cells assessed as cell growth inhibition at 0.1 uM incubated for 72 hrs by SRB assay; type: functional
[3] = Antiproliferative activity against human L02 cells assessed as cell growth inhibition at 1 uM incubated for 72 hrs by SRB assay; type: toxicity, cell-based
[4] = Antiproliferative activity against human L02 cells assessed as cell growth inhibition at 0.1 uM incubated for 72 hrs by SRB assay; type: toxicity, cell-based
[5] = tested on: HCT-116; experiment: Antiproliferative activity against human HCT-116 cells assessed as cell growth inhibition incubated for 72 hrs by SRB assay; type: functional, cell-based; conditions: HCT-116, 72 h
[6] = Antiproliferative activity against human L02 cells assessed as cell growth inhibition incubated for 72 hrs by SRB assay; type: toxicity, cell-based
[7] = Selectivity index, ratio of IC50 for antiproliferative activity against human L02 cells to IC50 for antiproliferative activity against human HCT-116 cells; type: toxicity, cell-based; conditions: L02 cells versus HCT-116 cells, read-out: Ratio IC50

| Compound | inhibition at 1 µM [1] [%] | inhibition at 0.1 µM [2] [%] | inhibition at 72 h, 1 µM [3] [%] | inhibition at 72 h, 0.1 µM [4] [%] | IC50 [5] [nM] | IC50 at 72 h [6] [nM] | selectivity ratio [7] |
| --- | --- | --- | --- | --- | --- | --- | --- |
| COc1ccc(/C=C/C(=O)O[C@H]2C[C@@H]3C(=CC[C@@H]4[C@@]3(C)C(=O)C[C@]3(C)[C@@H]([C@@](C)(O)C(=O)/C=C/C(C)(C)OC(C)=O)[C@H](OC(=O)/C=C/c5ccc(OC)cc5)C[C@@]43C)C(C)(C)C2=O)cc1 | 2.18 | 0.38 | 0.89 | -2.33 | – | – | – |
| COc1cc(-n2cnn(CC(=O)O[C@H]3C[C@@H]4C(=CC[C@@H]5[C@@]4(C)C(=O)C[C@]4(C)[C@@H]([C@@](C)(O)C(=O)/C=C/C(C)(C)OC(C)=O)[C@H](O)C[C@@]54C)C(C)(C)C3=O)c2=O)cc(OC)c1OC | 84.2 | 78 | 70 | 66 | 37 | 30 | 0.81 |
| CC(=O)OC(C)(C)/C=C/C(=O)[C@](C)(O)[C@H]1[C@H](OC(=O)/C=C/c2ccc(C)cc2)C[C@@]2(C)[C@@H]3CC=C4[C@@H](C[C@H](O)C(=O)C4(C)C)[C@]3(C)C(=O)C[C@]12C | 4.99 | 5.73 | 7.53 | 3.35 | – | – | – |
| CC(=O)OC(C)(C)/C=C/C(=O)[C@](C)(O)[C@H]1[C@H](OC(=O)/C=C/c2ccccc2)C[C@@]2(C)[C@@H]3CC=C4[C@@H](C[C@H](OC(=O)/C=C/c5ccccc5)C(=O)C4(C)C)[C@]3(C)C(=O)C[C@]12C | 9.26 | 3.56 | 11.7 | 0.97 | – | – | – |
| COc1ccc(/C=C/C(=O)O[C@H]2C[C@@H]3C(=CC[C@@H]4[C@@]3(C)C(=O)C[C@]3(C)[C@@H]([C@@](C)(O)C(=O)/C=C/C(C)(C)OC(C)=O)[C@H](O)C[C@@]43C)C(C)(C)C2=O)cc1 | 79.4 | 5.28 | 67.3 | -9.08 | – | – | – |
| CC(=O)OC(C)(C)/C=C/C(=O)[C@](C)(O)[C@H]1[C@H](O)C[C@@]2(C)[C@@H]3CC=C4[C@@H](C[C@H](OC(=O)c5cccs5)C(=O)C4(C)C)[C@]3(C)C(=O)C[C@]12C | 95.2 | 3.99 | 75.2 | 4.77 | – | – | – |
| COc1ccc(-n2cnn(CC(=O)O[C@H]3C[C@@H]4C(=CC[C@@H]5[C@@]4(C)C(=O)C[C@]4(C)[C@@H]([C@@](C)(O)C(=O)/C=C/C(C)(C)OC(C)=O)[C@H](O)C[C@@]54C)C(C)(C)C3=O)c2=O)cc1 | 83.3 | 64.3 | 70.8 | 31.4 | 44 | 33 | 0.75 |
| CC(=O)OC(C)(C)/C=C/C(=O)[C@](C)(O)[C@H]1[C@H](O)C[C@@]2(C)[C@@H]3CC=C4[C@@H](C[C@H](OC(=O)c5cn(-c6ccc(F)cc6)nn5)C(=O)C4(C)C)[C@]3(C)C(=O)C[C@]12C | 87.4 | 65.3 | 71.9 | 36.4 | 31 | 80 | 2.58 |
| CC(=O)OC(C)(C)/C=C/C(=O)[C@](C)(O)[C@H]1[C@H](O)C[C@@]2(C)[C@@H]3CC=C4[C@@H](C[C@H](OC(=O)/C=C/c5ccc(F)cc5)C(=O)C4(C)C)[C@]3(C)C(=O)C[C@]12C | 87.6 | 1.53 | 1.62 | -3.78 | – | – | – |
| CC(=O)OC(C)(C)/C=C/C(=O)[C@](C)(O)[C@H]1[C@H](O)C[C@@]2(C)[C@@H]3CC=C4[C@@H](C[C@H](OC(=O)/C=C/c5ccc(C)cc5)C(=O)C4(C)C)[C@]3(C)C(=O)C[C@]12C | 55.6 | 0.24 | 44.1 | 1.88 | – | – | – |
| CC(=O)OC(C)(C)/C=C/C(=O)[C@](C)(O)[C@H]1[C@H](OC(=O)/C=C/c2ccc(F)cc2)C[C@@]2(C)[C@@H]3CC=C4[C@@H](C[C@H](OC(=O)/C=C/c5ccc(F)cc5)C(=O)C4(C)C)[C@]3(C)C(=O)C[C@]12C | 7.98 | 2.07 | 6.72 | -13.1 | – | – | – |
| CC(=O)OC(C)(C)/C=C/C(=O)[C@](C)(O)[C@H]1[C@H](O)C[C@@]2(C)[C@@H]3CC=C4[C@@H](C[C@H](OC(=O)/C=C/c5ccccc5)C(=O)C4(C)C)[C@]3(C)C(=O)C[C@]12C | 86.8 | 1.46 | 72.7 | 1.72 | – | – | – |
| CC(=O)OC(C)(C)/C=C/C(=O)[C@](C)(O)[C@H]1[C@H](O)C[C@@]2(C)[C@@H]3CC=C4[C@@H](C[C@H](OC(=O)c5ccccn5)C(=O)C4(C)C)[C@]3(C)C(=O)C[C@]12C | 83.1 | 67.9 | 71.2 | 44.8 | 79 | 34 | 0.43 |
| CC(=O)OC(C)(C)/C=C/C(=O)[C@](C)(O)[C@H]1[C@H](O)C[C@@]2(C)[C@@H]3CC=C4[C@@H](C[C@H](OC(=O)c5cn(-c6ccc(Cl)cc6)nn5)C(=O)C4(C)C)[C@]3(C)C(=O)C[C@]12C | 94 | 35.1 | 72.6 | 12.5 | – | – | – |
| CC(=O)OC(C)(C)/C=C/C(=O)[C@](C)(O)[C@H]1[C@H](O)C[C@@]2(C)[C@@H]3CC=C4[C@@H](C[C@H](OC(=O)c5cn(-c6ccc(C)cc6)nn5)C(=O)C4(C)C)[C@]3(C)C(=O)C[C@]12C | 88.1 | 27.9 | 72.4 | 3.68 | – | – | – |
| CC(=O)OC(C)(C)/C=C/C(=O)[C@](C)(O)[C@H]1[C@H](OC(=O)/C=C/c2ccc(C)cc2)C[C@@]2(C)[C@@H]3CC=C4[C@@H](C[C@H](OC(=O)/C=C/c5ccc(C)cc5)C(=O)C4(C)C)[C@]3(C)C(=O)C[C@]12C | 4.21 | 0.65 | 8.01 | -13.3 | – | – | – |
| CC(=O)OC(C)(C)/C=C/C(=O)[C@](C)(O)[C@H]1[C@H](O)C[C@@]2(C)[C@@H]3CC=C4[C@@H](C[C@H](OC(=O)c5ccco5)C(=O)C4(C)C)[C@]3(C)C(=O)C[C@]12C | 83.5 | 22.1 | 69.2 | 20 | – | – | – |
| CC(=O)OC(C)(C)/C=C/C(=O)[C@](C)(O)[C@H]1[C@H](OC(=O)/C=C/c2ccc(F)cc2)C[C@@]2(C)[C@@H]3CC=C4[C@@H](C[C@H](O)C(=O)C4(C)C)[C@]3(C)C(=O)C[C@]12C | 1.19 | 5.23 | 67 | 7.68 | – | – | – |
| CC(=O)OC(C)(C)/C=C/C(=O)[C@](C)(O)[C@H]1[C@H](O)C[C@@]2(C)[C@@H]3CC=C4[C@@H](C[C@H](OC(=O)Cn5ncn(-c6ccc(C)cc6)c5=O)C(=O)C4(C)C)[C@]3(C)C(=O)C[C@]12C | 82.1 | 72.5 | 68.2 | 36.5 | 121 | 40 | 0.33 |
| CC(=O)OC(C)(C)/C=C/C(=O)[C@](C)(O)[C@H]1[C@H](OC(=O)/C=C/c2ccccc2)C[C@@]2(C)[C@@H]3CC=C4[C@@H](C[C@H](O)C(=O)C4(C)C)[C@]3(C)C(=O)C[C@]12C | 16.5 | 2.73 | 13.2 | 1.86 | – | – | – |
| CC(=O)OC(C)(C)/C=C/C(=O)[C@](C)(O)[C@H]1[C@H](O)C[C@@]2(C)[C@@H]3CC=C4[C@@H](C[C@H](OC(=O)c5cn(-c6ccc(Br)cc6)nn5)C(=O)C4(C)C)[C@]3(C)C(=O)C[C@]12C | 93 | 15.6 | 73.6 | 0.01 | – | – | – |
| CC(=O)OC(C)(C)/C=C/C(=O)[C@](C)(O)[C@H]1[C@H](O)C[C@@]2(C)[C@@H]3CC=C4[C@@H](C[C@H](OC(=O)Cn5ncn(-c6ccc(Br)cc6)c5=O)C(=O)C4(C)C)[C@]3(C)C(=O)C[C@]12C | 84.2 | 70.8 | 67.5 | 54.1 | 76 | 31 | 0.41 |
| COc1ccc(-n2cc(C(=O)O[C@H]3C[C@@H]4C(=CC[C@@H]5[C@@]4(C)C(=O)C[C@]4(C)[C@@H]([C@@](C)(O)C(=O)/C=C/C(C)(C)OC(C)=O)[C@H](O)C[C@@]54C)C(C)(C)C3=O)nn2)cc1 | 92.1 | 49.4 | 73.1 | 12.6 | – | – | – |
| CC(=O)OC(C)(C)/C=C/C(=O)[C@](C)(O)[C@H]1[C@H](O)C[C@@]2(C)[C@@H]3CC=C4[C@@H](C[C@H](OC(=O)c5cccnc5)C(=O)C4(C)C)[C@]3(C)C(=O)C[C@]12C | 82.4 | 19.9 | 68.3 | 10.1 | – | – | – |
| COc1ccc(/C=C/C(=O)O[C@@H]2C[C@@]3(C)[C@@H]4CC=C5[C@@H](C[C@H](O)C(=O)C5(C)C)[C@]4(C)C(=O)C[C@]3(C)[C@H]2[C@@](C)(O)C(=O)/C=C/C(C)(C)OC(C)=O)cc1 | 67.3 | 0.47 | 47.4 | -3.17 | – | – | – |
